Results published in patent US6869964B2, “Heterocyclicsulfonamide hepatitis C virus inhibitors” (Bristol-Myers Squibb Company, priority 2002, dated 2005).

Key:
[1] = target: T1, HCV NS3/4A protease complex (BMS strain) (Hepatitis C virus genotype 1a, UniProt P27958, C1454S); test: Recombinant HCV NS3/4A protease complex FRET peptide assay, BMS strain; format: biochemical, HCV genotype 1a; conditions: NS3/4A BMS Strain, activity range; read-out: IC50 a, b, c (Activity Table)
T1 construct: HCV NS3/4A protease complex (amino acids 1027 to 1711); inferred from pET21b vector and Ni-NTA purification; made in house; host or cells: Escherichia coli BL21 (DE3), pET21b
T1 sequence (P27958 1027-1657 C1454S): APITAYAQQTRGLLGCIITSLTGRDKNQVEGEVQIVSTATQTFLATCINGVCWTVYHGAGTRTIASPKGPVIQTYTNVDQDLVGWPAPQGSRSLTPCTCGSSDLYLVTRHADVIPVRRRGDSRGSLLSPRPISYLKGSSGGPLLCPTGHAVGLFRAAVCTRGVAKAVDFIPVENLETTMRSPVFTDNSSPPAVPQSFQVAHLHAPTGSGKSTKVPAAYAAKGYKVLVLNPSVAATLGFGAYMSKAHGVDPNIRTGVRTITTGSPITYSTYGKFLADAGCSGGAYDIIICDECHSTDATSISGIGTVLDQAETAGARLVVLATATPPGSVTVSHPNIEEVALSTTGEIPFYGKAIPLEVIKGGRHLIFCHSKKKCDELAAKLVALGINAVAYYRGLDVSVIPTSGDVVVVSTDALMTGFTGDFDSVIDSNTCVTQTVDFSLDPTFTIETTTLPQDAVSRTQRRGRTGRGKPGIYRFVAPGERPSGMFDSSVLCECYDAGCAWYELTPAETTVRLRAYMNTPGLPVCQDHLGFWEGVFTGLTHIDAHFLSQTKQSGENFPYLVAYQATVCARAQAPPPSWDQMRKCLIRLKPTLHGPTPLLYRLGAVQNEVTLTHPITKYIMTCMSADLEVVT
T1 sequence (P27958 1658-1711 partner, looked up, stated change not applied): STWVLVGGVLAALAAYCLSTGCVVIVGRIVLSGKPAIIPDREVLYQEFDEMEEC
From the text: Recombinant HCV NS3/4A Protease Complex FRET Peptide Assay
The purpose of this in vitro assay was to measure the inhibition of HCV NS3 protease complexes, derived from the BMS, H77C or J4l6S strains, as described below, by compounds of the present invention. This assay provides an indication of how effective compounds of the present invention would be in inhibiting HCV proteolytic activity.
Serum from an HCV-infected patient was obtained from Dr. T. Wright, San Francisco Hospital. An engineered full-length cDNA template of the HCV genome (BMS strain) was constructed from DNA fragments obtained by reverse transcription-PCR (RT-PCR) of serum RNA and using primers selected on the basis of homology between other genotype la strains. From the determination of the entire genome sequence, a genotype la was assigned to the HCV isolate according to the classification of Simmonds et al. (See P Simmonds, K A Rose, S Graham, S W Chan, F McOmish, B C Dow, E A Follett, P L Yap and H Marsden, J. Clin. Microbiol., 31(6), 1493-1503 (1993)). […] The infectious clones, H77C (1a genotype) and J4 L6S (1b genotype) were obtained from R. Purcell (NIH) and the sequences are published in Genbank (AAB67036, see Yanagi, M., Purcell, R. H., Emerson, S. U. and Bukh, J. Proc. Natl. Acad. Sci. U.S.A. 94(16),8738-8743 (1997); AF054247, see Yanagi, M., St Claire, M., Shapiro, M., Emerson, S. U., Purcell, R. H. and Bukh, J, Virology 244 (1), 161-172. (1998)).
The BMS, H77C and J4 L6S strains were used for production of recombinant NS3/4A protease complexes. DNA encoding the recombinant HCV NS3/4A protease complex (amino acids 1027 to 1711) for these strains were manipulated as described by P. Gallinari et al. (see Gallinari P, Paolini C, Brennan D, Nardi C, Steinkuhler C, De Francesco R. Biochemistry. 38(17):5620-32, (1999)). Briefly, a three-lysine solubilizing tail was added at the 3′-end of the NS4A coding region. The cysteine in the P1 position of the NS4A-NS4B cleavage site (amino acid 1711) was changed to a glycine to avoid the proteolytic cleavage of the lysine tag. Furthermore, a cysteine to serine mutation was introduced by PCR at amino acid position 1454 to prevent the autolytic cleavage in the NS3 helicase domain. The variant DNA fragment was cloned in the pET21b bacterial expression vector (Novagen) and the NS3/4A complex was expressed in Escherichia coli strain BL21 (DE3) (Invitrogen) following the protocol described by P. Gallinari et al. (see Gallinari P, Brennan D, Nardi C, Brunetti M, Tomei L, Steinkuhler C, De Francesco R., J Virol. 72(8):6758-69 (1998)) with modifications. Briefly, NS3/4A expression was induced with 0.5 mM Isopropyl β-D-1-thiogalactopyranoside (IPTG) for 22 hr at 20° C. A typical fermentation (10 L) yielded approximately 80 g of wet cell paste. The cells were resuspended in lysis buffer (10 mL/g) consisting of 25 mM N-(2-Hydroxyethyl)Piperazine-N′-(2-Ethane Sulfonic acid) (HEPES), pH7.5, 20% glycerol, 500 mM Sodium Chloride (NaCl), 0.5% Triton-X100, 1 ug/ml lysozyme, 5 mM Magnesium Chloride (MgCl2), 1 ug/ml DnaseI, 5 mM β-Mercaptoethanol (βME), Protease inhibitor—Ethylenediamine Tetraacetic acid (EDTA) free (Roche), homogenized and incubated for 20 mins at 4° C. The homogenate was sonicated and clarified by ultra-centrifugation at 235000 g for lhr at 4° C. Imidazole was added to the supernatant to a final concentration of 15 mM and the pH adjusted to 8.0. The crude protein extract was loaded on a Nickel—Nitrilotriacetic acid (Ni—NTA) column pre-equilibrated with buffer B (25 mM HEPES, pH8.0, 20% glycerol, 500 mM NaCl, 0.5% Triton-X100, 15 mM imidazole, 5 mM βME). The sample was loaded at a flow rate of 1 mL/min. The column was washed with 15 column volumes of buffer C (same as buffer B except with 0.2% Triton-X100). The protein was eluted with 5 column volumes of buffer D (same as buffer C except with 200 mM Imidazole). […]

[2] = test system: HCV replicon in Huh7 cells; test: HCV replicon cell-based assay (FRET); parameters: species or system HCV strain 1B; conditions: Hepatitis C virus, Huh-7; replicon, activity range; read-out: EC50 a, b, c (Activity Table)
From the text: HCV Replicon Cell-based Assay
An HCV replicon whole cell system was established as described by Lohmann V, Korner F, Koch J, Herian U, Theilmann L, Bartenschlager R., Science 285(5424): 110-3 (1999). This system enabled us to evaluate the effects of our HCV Protease compounds on HICV RNA replication. Briefly, using the HCV strain 1B sequence described in the Lohmann paper (Assession number: AJ238799), an HCV cDNA was generated encoding the 5′ internal ribosome entry site (IRES), the neomycin resistance gene, the EMCV (encephalomyocarditis virus)-IRES and the HCV nonstructural proteins, NS3-NS5B, and 3′ non-translated region (NTR). In vitro transcripts of the cDNA were transfected into the human hepatoma cell line, Huh7. […] Resulting cell lines were characterized for positive and negative strand RNA production and protein production over time.
Huh7 cells, constitutively expressing the HCV replicon, were grown in Dulbecco's Modified Eagle Media (DMEM) containing 10% Fetal calf serum (FCS) and 1 mg/ml G418 (Gibco-BRL). Cells were seeded the night before (1.5×10^4 cells/well) in 96-well tissue-culture sterile plates. Compound and no compound controls were prepared in DMEM containing 4% FCS, 1:100 Penicillin/Streptomysin, 1:100 L-glutamine and 5% DMSO in the dilution plate (0.5% DMSO final concentration in the assay). Compound/DMSO mixes were added to the cells and incubated for 4 days at 37° C. After 4 days, plates were rinsed thoroughly with Phosphate-Buffered Saline (PBS) (3 times 150 μl). The cells were lysed with 25 μl of a lysis assay reagent containing the FRET peptide (RET S1, as described for the in vitro enzyme assay). The lysis assay reagent was made from 5× cell Luciferase cell culture lysis reagent(Promega #E153A) diluted to 1× with distilled water, NaCl added to 150 mM final, the FRET peptide diluted to 10 μM final from a 2 mM stock in 100% DMSO. The plate was then placed into the Cytofluor 4000 instrument which had been set to 340 nm excitation/490 emission, automatic mode for 21 cycles and the plate read in a kinetic mode. EC50 determinations were carried out as described for the IC50 determinations.

Row | SMILES | IC50 [1] | EC50 [2]
1 | C=CC1C[C@]1(NC(=O)[C@@H]1C[C@@H](Oc2cc(-c3ccccc3)nc3cc(OC)ccc23)CN1C(=O)[C@@H](NC(=O)OC(C)(C)C)C(C)(C)C)C(=O)NS(=O)(=O)c1cc(Cl)c(Br)s1 (stereo partly shown) [Compound 6, {-[2-{1-[5-Bromo-4-chlorothiophene-2-sulfonylamino-carbonyl]-2-vinylcyclopropylcarbamoyl}-4-(7-methoxy-2-phenyl-quinolin-4-yloxy)pyrrolidine-1-carbonyl]-2,2-dimethylpropyl}carbarmic acid tert-butyl ester] | < 100 nM | 100 to 1000 nM
2 | C=CC1C[C@]1(NC(=O)[C@@H]1C[C@@H](Oc2cc(-c3ccccc3)nc3cc(OC)ccc23)CN1C(=O)[C@@H](NC(=O)OC(C)(C)C)C(C)(C)C)C(=O)NS(=O)(=O)c1nc(NC(C)=O)sc1C (stereo partly shown) [Compound 11, {1-[2-{1-[2-Acetylamino-5-methylthiazole-4-sulfonylaminocarbonyl]-2-vinylcyclopropylcarbamoyl}-4-(7-methoxy-2-phenyl-quinolin-4-yloxy)pyrrolidine-1-carbony]-2,2-dimethylpropyl}carbamic acid tert-butyl ester] | < 100 nM | 1000 to 10000 nM
